Test results published in patent US10294202B2, “Pyrrolidinones as herbicides” (FMC Corporation, priority 2013, dated 2019).

How the values were obtained:
cocklebur = assay: Test C pre-/postemergence herbicide test; type: in vivo, Xanthium strumarium; conditions: Preemergence
Method in brief: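 Response scores range from 0, meaning no effect, to 100, meaning complete control, assigned visually by comparison with controls roughly two weeks (13 to 15 days) after spraying. Applications were made preemergence to seeded loam–sand soil and postemergence to 1- to 4-leaf plants.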

velvetleaf = assay: Test E preemergence herbicide test; type: in vivo, Abutilon theophrasti; parameters: key: 0 = no effect, 100 = complete control
From the text: (§1) Seeds of plant species selected from corn (Zea mays), soybean (Glycine max), velvetleaf (Abutilon theophrasti), lambsquarters (Chenopodium album), wild poinsettia (Euphorbia heterophylla), pigweed, palmer (palmer pigweed, Amaranthus palmeri), waterhemp (common waterhemp, Amaranthus rudis), surinam grass (Brachiaria decumbens), crabgrass, large (large crabgrass, Digitaria sanguinalis), crabgrass, Brazil (Brazilian crabgrass, Digitaria horizontalis), panicum, fall (fall panicum, Panicum dichotomiflorum), foxtail, giant (giant foxtail, Setaria faberii), foxtail, green (green foxtail, Setaria viridis), goosegrass (Eleusine indica), johnsongrass (Sorghum halepense), ragweed (common ragweed, Ambrosia elatior), barnyardgrass (Echinochloa crus-galli), sandbur (southern sandbur, Cenchrus echinatus), arrowleaf […] rhombifolia), ryegrass, Italian (Italian ryegrass, Lolium multiflorum), dayflower, VA (Virginia dayflower, Commelina virginica), field bindweed (Convolvulus arvensis), morningglory (Ipomoea coccinea), nightshade (eastern black nightshade, Solanum ptycanthum), kochia (Kochia scoparia), nutsedge, yellow (yellow nutsedge, Cyperus esculentus), cocklebur (common cocklebur, Xanthium strumarium), smartweed (ladysthumb smartweed, Polygonum Persicaria) and beggarticks (hairy beggarticks, Bidens pilosa), were planted into a silt loam soil and treated preemergence with test chemicals formulated in a non-phytotoxic solvent mixture which included a surfactant. Treated plants and controls were maintained in a greenhouse for 21 days, after which time all species were compared to controls and visually evaluated. Plant response ratings, summarized in Table E, are based on a scale of 0 to 100 where 0 is no effect and 100 is complete control. A dash (-) response means no test result.

nutsedge, yellow = assay: Test E preemergence herbicide test; type: in vivo, Cyperus esculentus; parameters: key: 0 = no effect, 100 = complete control
From the text: as §1

field violet = assay: Test D pre-/postemergence herbicide test; type: in vivo, Viola arvensis; conditions: for Plant response rating: Field Violet, scale 0 to 100; for Plant response rating, Field Violet: scale 0 to 100 (0 no effect, 100 complete control)
Method in brief: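 Visual 0–100 ratings (0 = no effect, 100 = complete control) versus controls, made 7 to 21 days after treatment in a controlled growth environment. Test chemicals in surfactant-containing non-phytotoxic solvent were applied preemergence to silt loam-sown seeds and postemergence to plants 2–18 cm tall.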

deadnettle = assay: Test D pre-/postemergence herbicide test; type: in vivo, Lamium amplexicaule; conditions: for Plant response rating: Deadnettle, scale 0 to 100; for Plant response rating, Deadnettle: scale 0 to 100 (0 no effect, 100 complete control)
From the text: Seeds of plant species selected from bluegrass (annual bluegrass, Poa annua), blackgrass (Alopecurus myosuroides), canarygrass (littleseed canarygrass, Phalaris minor), chickweed (common chickweed, Stellaria media), galium (catchweed bedstraw, Galium aparine), bromegrass, downy (downy bromegrass, Bromus tectorum), field poppy (Papaver rhoeas), field violet (Viola arvensis), foxtail, green (green foxtail, Setaria viridis), deadnettle (henbit deadnettle, Lamium amplexicaule), ryegrass, Italian (Italian ryegrass, Lolium multiflorum), kochia (Kochia scoparia), lambsquarters (Chenopodium album), oilseed rape (Brassica napus), pigweed (Amaranthus retroflexus), chamomile (scentless chamomile, Matricaria inodora), Russian thistle (Salsola kali), speedwell (bird's-eye speedwell, Veronica persica), barley, spring (spring barley, Hordeum vulgare), wheat, spring (spring wheat, Triticum aestivum), buckwheat, wild (wild buckwheat, Polygonum convolvulus), mustard, wild (wild mustard, Sinapis arvensis), oat, wild (wild oat, Avena fatua), radish, wild (wild radish, Raphanus raphanistrum), […]), barley, winter (winter barley, Hordeum vulgare), and wheat, winter (winter wheat, Triticum aestivum) were planted into a silt loam soil and treated preemergence with test chemicals formulated in a non-phytotoxic solvent mixture which included a surfactant. At the same time, these species were planted in pots containing Redi-Earth® planting medium (Scotts Company, 14111 Scottslawn Road, Marysville, Ohio 43041) comprising spaghnum peat moss, vermiculite, wetting agent and starter nutrients and treated with postemergence applications of the test chemicals formulated in the same manner. Plants ranged in height from 2 to 18 cm (1- to 4-leaf stage). Treated plants and controls were maintained in a controlled growth environment for 7 to 21 days after which time all species were compared to controls and visually evaluated. Plant response ratings, summarized in Table D, are based on a scale of 0 to 100 where 0 is no effect and 100 is complete control. A dash (-) response means no test result.

| Structure (SMILES) | Plant response rating, Velvetleaf (velvetleaf; 16 g ai/ha) | Plant response rating, Velvetleaf (velvetleaf; 31 g ai/ha) | Plant response rating, Velvetleaf (velvetleaf; 62 g ai/ha) | Plant response rating, Velvetleaf (velvetleaf; 125 g ai/ha) | Plant response rating, Velvetleaf (velvetleaf; 250 g ai/ha) | Plant response rating, Nutsedge, Yellow (nutsedge, yellow; 16 g ai/ha) | Plant response rating, Nutsedge, Yellow (nutsedge, yellow; 31 g ai/ha) | Plant response rating, Nutsedge, Yellow (nutsedge, yellow; 62 g ai/ha) | Plant response rating, Nutsedge, Yellow (nutsedge, yellow; 125 g ai/ha) | Plant response rating, Nutsedge, Yellow (nutsedge, yellow; 250 g ai/ha) | Plant response rating (field violet; Postemergence, 31 g ai/ha) | Plant response rating (field violet; Postemergence, 62 g ai/ha) | Plant response rating (field violet; Postemergence, 125 g ai/ha) | Plant response rating (field violet; Postemergence, 250 g ai/ha) | Plant response rating, Field Violet (field violet; Preemergence, 62 g ai/ha) | Plant response rating, Field Violet (field violet; Preemergence, 31 g ai/ha) | Plant response rating (field violet; Preemergence, 250 g ai/ha) | Plant response rating, Deadnettle (deadnettle; Preemergence, 62 g ai/ha) | Plant response rating, Deadnettle (deadnettle; Preemergence, 31 g ai/ha) | Plant response rating (deadnettle; Preemergence, 250 g ai/ha) | also measured |
| --- | --- | --- | --- | --- | --- | --- | --- | --- | --- | --- | --- | --- | --- | --- | --- | --- | --- | --- | --- | --- | --- |
| O=C1NCC(c2ccc(Cl)c(Cl)c2)C1C(=O)Nc1ccccc1F (racemic) [Compound 14] | 0 | 0 | 0 | 0 | 0 | 0 | 0 | 0 | 0 | 0 |  |  |  |  |  |  |  |  |  |  | Plant response rating, Cocklebur (cocklebur; 62 g ai/ha, scale 0 to 100): 0; Cocklebur plant response rating (cocklebur; 31 g ai/ha, scale 0 to 100 (0 no effect, 100 complete control)): 0; Plant response rating, Cocklebur (cocklebur; 250 g ai/ha, scale 0 to 100 (0 no effect, 100 complete control)): 0 |
| O=C1NCC(c2ccc(C(F)(F)F)cc2)C1C(=O)Nc1cccc(F)c1F (racemic) [Compound 202] |  | 0 | 0 | 0 | 40 |  | 0 | 0 | 0 | 0 | 40 | 30 | 30 | 30 | 0 | 0 | 15 | 65 | 40 | 85 | Plant response rating (field violet; Preemergence, 125 g ai/ha): 10; Plant response rating (deadnettle; Postemergence, 31 g ai/ha): 5; Plant response rating (deadnettle; Postemergence, 62 g ai/ha): 35; Plant response rating (deadnettle; Postemergence, 125 g ai/ha): 60; Plant response rating (deadnettle; Postemergence, 250 g ai/ha): 70; Plant response rating (deadnettle; Preemergence, 125 g ai/ha): 80 |
| O=C1NCC(c2ccc(OC(F)F)cc2)C1C(=O)Nc1cccc(F)c1F (racemic) [Compound 350] |  | 0 | 0 | 0 | 0 |  | 0 | 0 | 0 | 15 |  |  |  |  |  |  |  |  |  |  |  |
| O=C1NCC(c2ccc(C(F)(F)F)cc2)C1C(=O)Nc1cccc(F)c1F (stereo not shown) [Compound 80, N-(2,3-difluorophenyl)-2-oxo-4-[4-(trifluoromethyl)phenyl]-3-pyrrolidinecarboxamide] | 0 | 0 | 0 | 0 | 0 | 0 | 0 | 0 | 0 | 0 | 15 | 20 | 15 | 25 | 20 | 0 | 25 | 0 | 0 | 70 | Plant response rating (field violet; Preemergence, 125 g ai/ha): 20; Plant response rating (deadnettle; Postemergence, 31 g ai/ha): 70; Plant response rating (deadnettle; Postemergence, 62 g ai/ha): 60; Plant response rating (deadnettle; Postemergence, 125 g ai/ha): 70; Plant response rating (deadnettle; Postemergence, 250 g ai/ha): 40; Plant response rating (deadnettle; Preemergence, 125 g ai/ha): 65 |
| O=C1NC[C@H](c2cccc(C(F)(F)F)c2)[C@H]1C(=O)Nc1ccccc1F [Compound 204, (3R,4S)—N-(2-fluorophenyl)-2-oxo-4-[3-(trifluoromethyl)phenyl]-3-pyrrolidinecarboxamide] |  | 0 | 0 | 0 | 0 |  | 0 | 0 | 0 | 0 |  |  |  |  | 15 | 10 | 25 | 25 | 25 | 35 | Plant response rating, Field Violet (field violet; Preemergence, 125 g ai/ha): 25; Plant response rating, Deadnettle (deadnettle; Preemergence, 125 g ai/ha): 25 |
| O=C1NC[C@H](c2cccc(C(F)(F)F)c2)[C@H]1C(=O)Nc1cccc(F)c1F [Compound 206] |  | 0 | 35 | 30 | 50 |  | 15 | 15 | 20 | 75 |  |  |  |  | 35 | 15 | 25 | 35 | 20 | 75 | Plant response rating, Field Violet (field violet; Preemergence, 125 g ai/ha): 35; Plant response rating, Deadnettle (deadnettle; Preemergence, 125 g ai/ha): 40 |
